Positions count from the first letter of the chain named. Read-outs that look alike come from different tables or passages of the source.
Key:
P2X4R = molecular target: T1, P2X4R (Rattus norvegicus, UniProt P51577); format: cell-based; settings: oocytes; for effect on ATP-induced currents: 10 μM metal pre-applied 1 min and co-applied with 10 μM ATP
T1 sequence (P51577 1-388): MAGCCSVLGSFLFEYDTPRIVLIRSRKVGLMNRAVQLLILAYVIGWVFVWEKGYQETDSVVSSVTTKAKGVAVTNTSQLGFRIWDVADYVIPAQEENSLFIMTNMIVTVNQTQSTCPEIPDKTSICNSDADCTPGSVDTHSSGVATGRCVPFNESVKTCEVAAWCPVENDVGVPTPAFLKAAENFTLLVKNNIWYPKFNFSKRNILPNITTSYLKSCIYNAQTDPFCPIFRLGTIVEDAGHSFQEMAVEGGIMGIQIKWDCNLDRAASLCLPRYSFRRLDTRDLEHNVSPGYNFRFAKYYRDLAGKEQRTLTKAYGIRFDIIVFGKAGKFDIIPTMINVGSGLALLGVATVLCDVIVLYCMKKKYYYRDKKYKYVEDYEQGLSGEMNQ

P2X2aR [1] = molecular target: T2, P2X2aR (Rattus norvegicus, UniProt P49653); format: cell-based; settings: for effect on the ATP-gated current: 10 μM metal pre-applied 1 min and co-applied with 30 μM ATP; for washout period sufficient to restore normal response: after 10 μM metal
T2 sequence (P49653 1-472): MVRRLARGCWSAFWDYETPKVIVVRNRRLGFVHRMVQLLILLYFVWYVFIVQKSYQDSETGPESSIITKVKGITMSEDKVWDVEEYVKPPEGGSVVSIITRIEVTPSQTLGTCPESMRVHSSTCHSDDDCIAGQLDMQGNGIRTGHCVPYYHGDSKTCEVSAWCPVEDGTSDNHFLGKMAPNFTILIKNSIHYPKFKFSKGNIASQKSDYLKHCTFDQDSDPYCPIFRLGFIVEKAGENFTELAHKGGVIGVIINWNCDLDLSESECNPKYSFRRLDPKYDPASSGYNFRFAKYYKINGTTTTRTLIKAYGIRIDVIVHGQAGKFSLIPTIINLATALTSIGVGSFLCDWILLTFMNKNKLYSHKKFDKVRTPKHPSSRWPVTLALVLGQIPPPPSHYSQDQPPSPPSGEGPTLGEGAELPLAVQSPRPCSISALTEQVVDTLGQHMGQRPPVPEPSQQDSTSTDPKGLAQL

P2X2a-C430S [2] = molecular target: T3, P2X2a-C430S (Rattus norvegicus, UniProt P49653, C430S); format: cell-based; settings: HEK293 cells
T3 sequence (P49653 1-472 C430S): T2 sequence (P49653 1-472) with C430S

P2X4/2a chimera = format: cell-based, rat; settings: oocytes; for effect on deactivation constant: copper or zinc
P2X4/2b chimera = format: cell-based, rat; settings: oocytes
P2X2a-C430S [3] = molecular target: T3, P2X2a-C430S; format: cell-based; settings: oocytes; for potentiation compared to wild type P2X2aR: copper or zinc
P2X2bR [4] = molecular target: T4, P2X2bR (Rattus norvegicus, UniProt P49653, DEL370-438); format: cell-based; settings: HEK293 cells
T4 sequence (P49653 with tags, fused parts or gaps DEL370-438): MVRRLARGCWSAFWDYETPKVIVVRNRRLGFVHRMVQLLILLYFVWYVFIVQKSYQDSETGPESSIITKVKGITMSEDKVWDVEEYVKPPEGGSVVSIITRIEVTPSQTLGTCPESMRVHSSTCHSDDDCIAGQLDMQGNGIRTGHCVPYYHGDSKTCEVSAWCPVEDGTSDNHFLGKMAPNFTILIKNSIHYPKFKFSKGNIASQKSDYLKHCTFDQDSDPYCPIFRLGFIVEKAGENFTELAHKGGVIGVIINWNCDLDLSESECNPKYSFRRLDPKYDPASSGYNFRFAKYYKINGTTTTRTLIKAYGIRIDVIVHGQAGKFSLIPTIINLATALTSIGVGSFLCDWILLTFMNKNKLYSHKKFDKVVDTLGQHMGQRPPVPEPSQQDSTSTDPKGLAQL

P2X2bR [5] = molecular target: T4, P2X2bR; format: cell-based; settings: oocytes
P2X2a-C430A = molecular target: T5, P2X2a-C430A (Rattus norvegicus, UniProt P49653, C430A); format: cell-based; settings: oocytes; for potentiation compared to wild type P2X2aR: zinc or copper
T5 sequence (P49653 1-472 C430A): T2 sequence (P49653 1-472) with C430A

P2X2aR [6] = molecular target: T2, P2X2aR; test: ATP-evoked currents, whole-cell patch clamp, HEK293 cells expressing P2X2aR; format: cell-based
[7] = saturating concentration of ATP

O[C@@H](CS)[C@@H](O)CS (racemic) [DTT, dithiothreitrol]
effect on receptor activity (P2X4R; DTT alone): did not modify the receptor activity
effect of co-application with H2O2 (P2X4R; DTT co-applied with H2O2): the inhibition was completely obliterated
effect on ATP-evoked currents (P2X2aR [1]; 1 mM DTT alone, oocytes): did not modify the ATP-evoked currents
effect of co-application with H2O2 (P2X2aR [1]; DTT co-applied with H2O2, oocytes): abolished the effect of H2O2

Nc1ncnc2c1ncn2[C@@H]1O[C@H](COP(=O)([O-])OP(=O)([O-])OP(=O)([O-])O)[C@@H](O)[C@H]1O.[Na+].[Na+].[Na+] [ATP, ATP tri sodium salt]
EC50 (P2X2a-C430S [2]; ATP alone, Hill equation): 18.1 ± 3.3 µM
nH (P2X2a-C430S [2]; ATP): 1.5 ± 0.6
Imax (P2X2a-C430S [2]; [7]): 5.4 ± 0.9 nA
10–90% deactivation time (P2X4/2a chimera; ATP alone (before mercury)): 12.6 ± 1.1 s
EC50 (P2X4/2a chimera; ATP alone, Hill equation): 4.8 ± 0.6 µM
nH (P2X4/2a chimera; ATP): 0.9 ± 0.2
Imax (P2X4/2a chimera; [7]): 6.7 ± 1.5 μA
EC50 (P2X4R; ATP alone, Hill equation): 11 ± 2.6 µM
Imax (P2X4R; [7]): 4.7 ± 0.6 μA
EC50 (P2X4/2b chimera; ATP alone, Hill equation): 4.6 ± 2.4 µM
nH (P2X4/2b chimera; ATP): 1.2 ± 0.1
Imax (P2X4/2b chimera; [7]): 14.0 ± 1.5 μA
EC50 (P2X2a-C430S [3]; ATP alone, Hill equation): 45 ± 6.3 µM
nH (P2X2a-C430S [3]; ATP): 1.4 ± 0.3
Imax (P2X2a-C430S [3]; [7]): 11.8 ± 0.8 μA
10–90% deactivation time (P2X2aR [1]; ATP alone (before mercury), oocytes): 4.4 ± 0.2 s
EC50 (P2X2aR [1]; ATP alone, Xenopus laevis oocytes, Hill equation): 33.3 ± 2.5 µM
nH (P2X2aR [1]; ATP, oocytes, Hill equation): 1.4 ± 0.1
Imax (P2X2aR [1]; saturating concentration of ATP, oocytes): 12.1 ± 2.9 μA
EC50 (P2X2bR [4]; ATP alone, Hill equation): 7.6 ± 1.3 µM
nH (P2X2bR [4]; ATP): 1.1 ± 0.3
Imax (P2X2bR [4]; [7]): 4.2 ± 0.9 nA
EC50 (P2X2bR [5]; ATP alone, Hill equation): 59.2 ± 9.1 µM
nH (P2X2bR [5]; ATP): 1.4 ± 0.3
Imax (P2X2bR [5]; [7]): 15.6 ± 1.9 μA
EC50 (P2X2a-C430A; ATP alone, Hill equation): 293 ± 70 µM
nH (P2X2a-C430A; ATP): 1.2 ± 0.3
reduction of ATP potency compared to the wild type (P2X2a-C430A): 10 fold
Imax (P2X2a-C430A; [7]): 1.2 ± 0.5 μA
nH (P2X2aR [6]; ATP): 1.2 ± 0.2
EC50 (P2X2aR [6]; ATP alone, Hill equation): 10.2 ± 1.3 µM
Imax (P2X2aR [6]; [7]): 4.6 ± 0.3 nA

CSS(C)(=O)=O [MMTS, Methylmethane-thiosulfonate]
effect on H2O2 potentiation (P2X2aR [1]): abolished
current increase by agent alone (transient and reversible) (P2X2aR [1]; MMTS alone, oocytes, data not shown): 20%
effect on mercury-induced potentiation (P2X2aR [1]; MMTS treatment, oocytes): abolished

[Cl][Cu][Cl] [copper]
increase of ATP-gated currents (P2X2a-C430S [2]; 10 μM metal, ATP ~EC15): 4.2 ± 0.9 fold
inhibition of ATP-evoked currents (P2X4/2a chimera; 10 μM copper, 1 μM ATP): 50%
effect on deactivation constant (P2X4/2a chimera): did not modify significantly
decrease of maximal ATP response (P2X4/2a chimera; copper, not shown): 40%
effect on ATP-induced currents (P2X4R): inhibited
inhibition of ATP-evoked currents (P2X4/2b chimera; 10 μM copper, 1 μM ATP): 55 ± 12%
potentiation compared to wild type P2X2aR (P2X2a-C430S [3]): not changed
increase of 10–90% deactivation time (P2X2aR [1]): 2 fold
effect on the ATP-gated current (P2X2aR [1]; oocytes): potentiated
washout period sufficient to restore normal response (P2X2aR [1]; oocytes): ≤ 10 min
increase of ATP-gated currents (P2X2bR [4]; 10 μM metal, ATP ~EC15): 5.7 ± 1.5 fold
potentiation compared to wild type P2X2aR (P2X2a-C430A): not significantly altered
increase of ATP-evoked currents (P2X2aR [6]; 10 μM metal, ATP ~EC15): 4.5 ± 0.5 fold

[Cl-].[Cl-].[Zn+2] [zinc]
potentiation of 1 μM ATP-induced current (P2X4/2a chimera; 10 μM metal, 1 μM ATP): 2.6 ± 0.3 fold
effect on deactivation constant (P2X4/2a chimera): did not modify significantly
effect on ATP-induced currents (P2X4R): potentiated
potentiation of receptor activity (P2X4/2b chimera; 10 μM zinc, 1 μM ATP): 2.6 ± 0.3 fold
potentiation compared to wild type P2X2aR (P2X2a-C430S [3]): not changed
effect on the ATP-gated current (P2X2aR [1]; oocytes): potentiated
washout period sufficient to restore normal response (P2X2aR [1]; oocytes): ≤ 10 min
potentiation compared to wild type P2X2aR (P2X2a-C430A): not significantly altered
